According to article PMC7898615 (Chemistry (Weinheim an Der Bergstrasse, Germany), 2020):

Each compound was assayed against T1, tryptophan synthase (TS) complex, TrpA:TrpB (Salmonella enterica, UniProt P0A2K1) (assay: coupled VioA/HRP assay of Trp formation, […] nm, global fit).
T1 sequence (P0A2K1 1-397): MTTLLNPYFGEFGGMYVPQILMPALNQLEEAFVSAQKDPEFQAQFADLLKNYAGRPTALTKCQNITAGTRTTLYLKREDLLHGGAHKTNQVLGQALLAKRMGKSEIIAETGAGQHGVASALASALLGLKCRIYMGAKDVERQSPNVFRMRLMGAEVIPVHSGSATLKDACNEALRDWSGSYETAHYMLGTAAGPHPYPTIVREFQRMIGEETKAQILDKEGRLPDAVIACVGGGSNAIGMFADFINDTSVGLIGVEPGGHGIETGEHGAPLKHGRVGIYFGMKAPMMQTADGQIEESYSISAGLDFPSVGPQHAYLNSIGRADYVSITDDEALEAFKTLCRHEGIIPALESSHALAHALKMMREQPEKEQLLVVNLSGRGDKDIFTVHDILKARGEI
T1 sequence (P00929 1-268 partner): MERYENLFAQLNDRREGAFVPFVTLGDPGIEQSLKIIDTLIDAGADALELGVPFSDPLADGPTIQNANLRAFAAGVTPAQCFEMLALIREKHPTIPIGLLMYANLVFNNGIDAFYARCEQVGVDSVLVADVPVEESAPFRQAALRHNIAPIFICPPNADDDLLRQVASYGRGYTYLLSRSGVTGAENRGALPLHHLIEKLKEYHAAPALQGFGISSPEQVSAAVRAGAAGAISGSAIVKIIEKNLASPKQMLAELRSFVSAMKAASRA
Type: biochemical

Row | SMILES | Ki [µM]
1 | O=C(NCCCCCOP(=O)(O)O)c1ccc(/N=N\c2ccccc2)cc1 [4e, 4 e (Z isomer)] | 930 ± 420
2 | O=C(NCCCCCOP(=O)(O)O)c1ccc(/N=N/c2ccccc2)cc1 [4e, (E)‐5‐(4‐(phenyldiazenyl)benzamido)pentyl dihydrogen phosphate] | 180 ± 40
3 | O=C(NCCCCCCOP(=O)(O)O)c1ccc(/N=N\c2ccccc2)cc1 [4f, 4 f (Z isomer)] | 100 ± 10

Second part, the compound after the results:

Row | Ki [µM] | SMILES
4 | > 4000 | O=C(NCCCCOP(=O)(O)O)c1ccc(/N=N\c2ccccc2)cc1 [4d, 4 d (Z isomer)]
5 | 640 ± 80 | O=C(NCCCCOP(=O)(O)O)c1ccc(/N=N/c2ccccc2)cc1 [4d, (E)‐4‐(4‐(phenyldiazenyl)benzamido)butyl dihydrogen phosphate]
6 | 50 | O=C(NCCCCCCOP(=O)(O)O)c1ccc(/N=N/c2ccccc2)cc1 [4f, (E)‐6‐(4‐(phenyldiazenyl)benzamido)hexyl dihydrogenphosphate]
